Assay results as given in PubChem BioAssay (NCI).
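Following 48 hours of exposure in 96-well plates, responses at five concentrations were used to interpolate endpoints linearly. Definition used: TGI = concentration required for complete inhibition of growth.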

Assays:
Test in all cases: NCI anticancer screen, dose series, 48 h
[1] = tested on: M19-MEL melanoma
[2] = tested on: M14 melanoma
[3] = tested on: SN12C renal
[4] = tested on: DMS 273 small cell lung
[5] = tested on: LOX IMVI melanoma
[6] = tested on: K-562 leukemia
[7] = tested on: NCI-H522 lung
[8] = tested on: NCI-H460 lung
[9] = tested on: HL-60(TB) leukemia
[10] = tested on: EKVX NSCLC
[11] = tested on: TK-10 renal
[12] = tested on: COLO 205 colon
[13] = tested on: SNB-75 CNS
[14] = tested on: OVCAR-5 ovarian
[15] = tested on: U251 CNS
[16] = tested on: IGROV1 ovarian
[17] = tested on: MALME-3M melanoma
[18] = tested on: UACC-257 melanoma
[19] = tested on: HCC-2998 colon
[20] = tested on: SF-539 CNS
[21] = tested on: HOP-18 NSCLC
[22] = tested on: NCI-H23 lung
[23] = tested on: UO-31 renal
[24] = tested on: CAKI-1 renal
[25] = tested on: SK-OV-3 ovarian
[26] = tested on: HOP-62 NSCLC
[27] = tested on: OVCAR-3 ovarian
[28] = tested on: KM20L2 colon
[29] = tested on: HOP-92 NSCLC
[30] = tested on: CCRF-CEM leukemia
[31] = tested on: SK-MEL-2 melanoma
[32] = tested on: SF-295 CNS
[33] = tested on: KM12 colon
[34] = tested on: SK-MEL-5 melanoma
[35] = tested on: OVCAR-4 ovarian
[36] = tested on: SNB-19 CNS
[37] = tested on: DLD-1 colon
[38] = tested on: OVCAR-8 ovarian
[39] = tested on: RPMI-8226 leukemia
[40] = tested on: SW-620 colon
[41] = tested on: HCT-116 colon
[42] = tested on: ACHN renal
[43] = tested on: HT29 colon
[44] = tested on: UACC-62 melanoma
[45] = tested on: HCT-15 colon
[46] = tested on: LXFL 529 NSCLC
[47] = tested on: 786-0 renal
[48] = tested on: NCI-H226 lung
[49] = tested on: MOLT-4 leukemia
[50] = tested on: A498 renal
[51] = tested on: SK-MEL-28 melanoma
[52] = tested on: SR leukemia
[53] = tested on: DMS 114 small cell lung
[54] = tested on: A549 NSCLC
[55] = tested on: SF-268 CNS
[56] = tested on: RXF 393 renal
[57] = tested on: SNB-78 CNS

Measured: TGI

CCCCCCC1NN(C(C)=O)C(CCCCCC)NN1C(C)=O (stereo unspecified)
33.7 µM: [8]
67.4 µM: [39]
46.7 µM: [5]
46.1 µM: [40]
not listed: [50] | [51] | [52] | [53] | [54] | [55] | [56] | [57]
> 100 µM: all other assays above

COc1ccc(CC#N)c(OCc2ccccc2)c1
79 µM: [17]
67 µM: [46]
66 µM: [48]
50.6 µM: [34]
79.3 µM: [21]
59.4 µM: [50]
85 µM: [37]
84.6 µM: [51]
not listed: [9] | [11] | [13] | [14] | [15] | [25] | [29] | [31] | [43] | [45] | [56] | [57]
> 100 µM: all other assays above

Cc1ccc(O)c(N=Nc2ccc(S(=O)(=O)O)cc2)n1
47.9 µM: [10]
not listed: [13] | [14] | [17] | [18] | [19] | [26] | [27] | [31] | [33] | [35] | [36] | [43] | [48] | [52] | [57]
> 100 µM: all other assays above

CCCCC#COS(=O)(=O)c1ccc(C)cc1
84.9 µM: [48]
not listed: [4] | [11] | [13] | [21] | [29] | [51] | [56]
> 100 µM: all other assays above
